The results in this text go back to ChEMBL document CHEMBL1137288, “Antiprotozoal activities of new bis-chlorophenyl derivatives of bicyclic octanes and aza-nonanes” (Bioorg Med Chem Lett, 2006).

The test system of one test is Plasmodium falciparum. The test is described as follows: Antiprotozoal activity against chloroquine-, pyrimethamine-resistant Plasmodium falciparum K1. It is filed as functional, organism-based.
Test [1] in a line: Selectivity index, IC50 for L6 cells/ IC50 for Trypanosoma brucei rhodesience. It is filed as functional.
The subject of the next test is L6. Kind of test: Cytotoxicity against L6 cells. Type of test: cell-based. To be noted: Rattus norvegicus.
In test [2] the test system is Trypanosoma brucei rhodesiense. Kind of test: Antiprotozoal activity against Trypanosoma brucei rhodesiense STIB900. It is filed as functional, organism-based.
Test [3] is described as follows: Selectivity index, IC50 for L6 cells/IC50 for Plasmodium falciparum K1. It is filed as functional.
For test [4], the system named is Trypanosoma brucei brucei. The test is described as follows: Survival of NMRI mouse infected with Trypanosoma brucei brucei at 50 mg/kg, ip. Type of test: functional. As to conditions: route intraperitoneal.
In test [5] the test system is Trypanosoma brucei brucei. The test is described as follows: Survival of NMRI mouse infected with Trypanosoma brucei brucei at 0.5 mg/kg, ip. It is filed as functional. To be noted: route intraperitoneal.

SMILES strings stand for the structures.

Take `O=C1CC2(N3CCCCC3)CC(c3ccccc3)C1C(c1ccccc1)C2` (centres undefined): the values for the IC50 (with Plasmodium falciparum; in the test on L6; in test [2]) were 3.95 µM, 46.9 µM and 8.12 µM, respectively. Moreover, the “Ratio IC50” value in test [1] was 5.78; in test [3], 11.88.

For the compound `Clc1ccc(C2CC3(N4CCCCC4)CCNC2C(c2ccc(Cl)cc2)C3)cc1` (centres undefined), the IC50 (commonly the concentration that gives 50% inhibition) in the test on Plasmodium falciparum was determined as 0.46 µM; in the test on L6, 8.1 µM; in test [2] it was 0.065 µM. The “Ratio IC50” value in test [1] stood at 124.6; in test [3] it was 17.61. The Mean survival days in test [4] turned out to be 10.25 days.

Regarding `COc1ccc(C2CC3(N4CCCCC4)CC(=O)C2C(c2ccc(OC)cc2)C3)cc1` (centres undefined), the IC50 is 4.36 µM with Plasmodium falciparum and 10 µM in test [2].

For `OC1CC2(N3CCCC3)CC(c3ccc(Cl)cc3)C1C(c1ccc(Cl)cc1)C2` (centres undefined), the IC50 in the test on Plasmodium falciparum came out at 0.53 µM; in the test with L6, 3.59 µM; in test [2], 0.37 µM. The figures for the “Ratio IC50” value in test [1] and in test [3] were 9.7 and 6.77, respectively.

Take `CN(C)C12CCNC(C(c3ccccc3)C1)C(c1ccccc1)C2` (centres undefined): the “Ratio IC50” value in test [1] was found to be 181.3; in test [3], 388.6.

Take `O/N=C1\CC2(N3CCCC3)CC(c3ccc(Cl)cc3)C1C(c1ccc(Cl)cc1)C2` (centres undefined): the figures for the IC50 (in the test on Plasmodium falciparum; in the test with L6; in test [2]) were 0.51 µM, 12.7 µM and 1.69 µM, respectively. The “Ratio IC50” value is 7.49 in test [1] and 24.82 in test [3].

In the case of `COc1ccc(C2CC3(N(C)C)CC(=O)C2C(c2ccc(OC)cc2)C3)cc1` (centres undefined), the IC50 in the test on Plasmodium falciparum is 5.43 µM; in the test with L6, 52.4 µM; in test [2] it was 5.01 µM. For the same compound, the “Ratio IC50” value in test [1] was 10.47; in test [3], 9.66.

Turning to `OC1CC2(N3CCCC3)CC(c3ccccc3)C1C(c1ccccc1)C2` (centres undefined), the IC50 came out at 2.39 µM in the test on Plasmodium falciparum, 26.8 µM in the test on L6 and 4.26 µM in test [2]. The “Ratio IC50” value was found to be 6.28 in test [1] and 11.2 in test [3].

Turning to `O/N=C1/CC2(N3CCCC3)CC(c3ccc(Cl)cc3)C1C(c1ccc(Cl)cc1)C2` (centres undefined), the IC50 in the test with Plasmodium falciparum was found to be 0.19 µM; with L6, 5.81 µM; in test [2] it was 1.51 µM. Moreover, the “Ratio IC50” value in test [1] is listed as 3.85; in test [3], 27.26.

`OC1CC2(N3CCCCC3)CC(c3ccc(Cl)cc3)C1C(c1ccc(Cl)cc1)C2` (centres undefined): the values for the 50% inhibitory concentration (IC50) (in the test on Plasmodium falciparum; in the test with L6; in test [2]) were 0.37 µM, 11.6 µM and 0.44 µM, respectively. For the same compound, the “Ratio IC50” value in test [1] was found to be 26.34; in test [3], 31.32.

With `CN(C)C12CC(=O)NC(C(c3ccccc3)C1)C(c1ccccc1)C2` (centres undefined), the half-maximal inhibitory concentration (IC50) in the test on Plasmodium falciparum was 1.4 µM; in the test with L6, above 269 µM; in test [2], 38 µM. Further, the “Ratio IC50” value in test [1] is recorded as 7.09; in test [3], 192.2.

As for `CN(C)C12C/C(=N\O)C(C(c3ccccc3)C1)C(c1ccccc1)C2` (centres undefined), the IC50 was found to be 1.26 µM in the test with Plasmodium falciparum, 150 µM in the test on L6 and 7.67 µM in test [2]. Besides, the “Ratio IC50” value worked out at 19.61 in test [1] and 119.4 in test [3].

`COc1ccc(C2CC3(N4CCCCC4)CC(O)C2C(c2ccc(OC)cc2)C3)cc1` (centres undefined): the IC50 is 4.98 µM with Plasmodium falciparum, 44.6 µM with L6 and 14.2 µM in test [2]. In addition, the figures for the “Ratio IC50” value in test [1] and in test [3] were 3.13 and 8.95, respectively.

As for `CN(C)C12CC(O)C(C(c3ccccc3)C1)C(c1ccccc1)C2` (centres undefined), the IC50 in the test on Plasmodium falciparum is above 15.6 µM; in the test on L6 it was 132 µM; in test [2] it was 2.95 µM. Also, the results for the “Ratio IC50” value in test [1] and in test [3] were 44.91 and 8.52, respectively.

Regarding `COc1ccc(C2CC3(N4CCCC4)CC(=O)C2C(c2ccc(OC)cc2)C3)cc1` (centres undefined), the values for the concentration for half-maximal inhibition (IC50) (with Plasmodium falciparum; in the test with L6; in test [2]) were 3.37 µM, 41.9 µM and 3.7 µM, respectively. Further, the figures for the “Ratio IC50” value in test [1] and in test [3] were 11.34 and 12.44, respectively.

`CN(C)C12C/C(=N\O)C(C(c3ccc(Cl)cc3)C1)C(c1ccc(Cl)cc1)C2` (centres undefined): the IC50 in the test with Plasmodium falciparum was 1 µM; in the test with L6, 7.82 µM; in test [2], 1.5 µM. Moreover, the results for the “Ratio IC50” value in test [1] and in test [3] were 5.21 and 7.82, respectively.

Take `CN(C)C12CC(=O)C(C(c3ccccc3)C1)C(c1ccccc1)C2` (centres undefined): the IC50 is above 10.6 µM with Plasmodium falciparum, 24.6 µM with L6 and 9.99 µM in test [2]. In addition, the entries for the “Ratio IC50” value in test [1] and in test [3] were 2.46 and 2.32, respectively.

`c1ccc(C2CC3(N4CCCC4)CCNC2C(c2ccccc2)C3)cc1` (centres undefined): the “Ratio IC50” value worked out at 103.8 in test [1] and 215 in test [3].

For the compound `O=C1CC2(N3CCCC3)CC(c3ccccc3)C(N1)C(c1ccccc1)C2` (centres undefined), the IC50 in the test on Plasmodium falciparum was 8.76 µM; with L6, above 250 µM; in test [2], 37.9 µM. In addition, the “Ratio IC50” value in test [1] is 6.58; in test [3] it was 28.43.

Turning to `O/N=C1\CC2(N3CCCC3)CC(c3ccccc3)C1C(c1ccccc1)C2` (centres undefined), the IC50 with Plasmodium falciparum came to 0.08 µM; with L6, 13.5 µM; in test [2], 1.84 µM. The “Ratio IC50” value in test [1] is 7.31; in test [3] it was 168.1.

In the case of `OC1CC2(N3CCCCC3)CC(c3ccccc3)C1C(c1ccccc1)C2` (centres undefined), the IC50 came out at 0.84 µM in the test with Plasmodium falciparum, 37.3 µM in the test on L6 and 5.34 µM in test [2]. The “Ratio IC50” value is listed as 6.99 in test [1] and 44.45 in test [3].

Take `Clc1ccc(C2CC3(N4CCCC4)CCNC2C(c2ccc(Cl)cc2)C3)cc1` (centres undefined): the IC50 in the test on Plasmodium falciparum is 0.25 µM; with L6 it was 10.1 µM; in test [2] it was 0.066 µM. The “Ratio IC50” value came out at 152.4 in test [1] and 40.24 in test [3]. Besides, the Mean survival days in test [4] came out at 5.75 days.

For the compound `O=C1CC2(N3CCCC3)CC(c3ccccc3)C1C(c1ccccc1)C2` (centres undefined), the IC50 came to 1.19 µM in the test on Plasmodium falciparum, 26.4 µM in the test on L6 and 8.03 µM in test [2]. Besides, the “Ratio IC50” value in test [1] was determined as 3.29; in test [3], 22.22.

For `CN(C)C12CC(O)C(C(c3ccc(Cl)cc3)C1)C(c1ccc(Cl)cc1)C2` (centres undefined), the IC50 worked out at 0.98 µM in the test on Plasmodium falciparum, 8.77 µM in the test on L6 and 0.32 µM in test [2]. The “Ratio IC50” value in test [1] is 27.41; in test [3], 8.95.

As for `O=C1CC2(N3CCCCC3)CC(c3ccccc3)C(N1)C(c1ccccc1)C2` (centres undefined), the half-inhibitory concentration (IC50) in the test on Plasmodium falciparum was 13 µM; in the test on L6, 234 µM; in test [2], 36.6 µM. For the same compound, the “Ratio IC50” value in test [1] was 6.38; in test [3], 17.97.

Turning to `O/N=C1\CC2(N3CCCCC3)CC(c3ccc(Cl)cc3)C1C(c1ccc(Cl)cc1)C2` (centres undefined), the IC50 worked out at 0.5 µM in the test on Plasmodium falciparum, 8.75 µM in the test with L6 and 3.34 µM in test [2]. Further, the “Ratio IC50” value is recorded as 2.62 in test [1] and 17.5 in test [3].

Turning to `O/N=C1\CC2(N3CCCCC3)CC(c3ccccc3)C1C(c1ccccc1)C2` (centres undefined), the figures for the IC50 (in the test on Plasmodium falciparum; in the test with L6; in test [2]) were 0.15 µM, 24.2 µM and 3.66 µM, respectively. Moreover, the “Ratio IC50” value in test [1] is given as 6.6; in test [3] it was 161.1.

For `CN(C)C12CCNC(C(c3ccc(Cl)cc3)C1)C(c1ccc(Cl)cc1)C2` (centres undefined), the IC50 in the test with Plasmodium falciparum amounted to 0.41 µM; in the test with L6, 8.74 µM; in test [2], 0.061 µM. Further, the “Ratio IC50” value is 143.3 in test [1] and 21.32 in test [3]. The Mean survival days in test [4] was found to be 9 days.

Take `c1ccc(C2CC3(N4CCCCC4)CCNC2C(c2ccccc2)C3)cc1` (centres undefined): the “Ratio IC50” value in test [1] was 13.66; in test [3], 140.22.

Consider `COc1ccc(C2CC3(N4CCCC4)CC(O)C2C(c2ccc(OC)cc2)C3)cc1` (centres undefined), for which the IC50 in the test with Plasmodium falciparum was determined as 2.72 µM; in the test with L6 it was 17.9 µM; in test [2] it was 7.61 µM. Moreover, the entries for the “Ratio IC50” value in test [1] and in test [3] were 2.35 and 6.58, respectively.

For the compound `COc1ccc(C2CC3(N(C)C)CC(O)C2C(c2ccc(OC)cc2)C3)cc1` (centres undefined), the IC50 in the test on Plasmodium falciparum amounted to 5.5 µM; in the test on L6, 63.4 µM; in test [2] it was 2.15 µM. Also, the figures for the “Ratio IC50” value in test [1] and in test [3] were 29.5 and 11.53, respectively.

For `C[C@@H]1CC[C@H]2[C@@H](C)C(=O)O[C@@H]3O[C@@]4(C)CC[C@@H]1[C@]32OO4` [ARTEMISININ], in the test with Plasmodium falciparum, half-maximal inhibition (IC50) required 0.0064 µM. For the same compound, in test [3], the “Ratio IC50” value is reported as 70390.

As to `OC(c1cc(C(F)(F)F)nc2c(C(F)(F)F)cccc12)C1CCCCN1` (centres undefined) [MEFLOQUINE], the IC50 with L6 turned out to be 11.4 µM.

As for `Nc1nc(N)nc(Nc2ccc([As]3SCC(CO)S3)cc2)n1` (centres undefined) [MELARSOPROL], the “Ratio IC50” value in test [1] is recorded as 1995. This compound also returned a Mean survival days in test [5] of 42.5 days.

In the case of `Cc1ccc(C(=O)Nc2ccc(S(=O)(=O)O)c3cc(S(=O)(=O)O)cc(S(=O)(=O)O)c23)cc1NC(=O)c1cccc(NC(=O)Nc2cccc(C(=O)Nc3cc(C(=O)Nc4ccc(S(=O)(=O)O)c5cc(S(=O)(=O)O)cc(S(=O)(=O)O)c45)ccc3C)c2)c1` [SURAMIN], the “Ratio IC50” value in test [1] is listed as 629933. Moreover, the IC50 in the test with L6 was 4720 µM; in test [2], 0.0075 µM.
